This passage reports IC50 and Activity results from ChEMBL document CHEMBL4406838, “Neurobehavioral investigation and acetylcholinesterase inhibitory activity study for some new coumarin derivatives” (Eur J Med Chem, 2019).

pIC50: −log10 of the molar value. Calls of active or inactive are those of the source. The rule behind the calls is not given here.

In assay [1] the target is Acetylcholinesterase (Homo sapiens, UniProt P22303). Kind of assay: Inhibition of AChE (unknown origin) using acetylthiocholine iodide as substrate by Ellman's method.
Acetylcholinesterase, sequence (P22303 whole entry): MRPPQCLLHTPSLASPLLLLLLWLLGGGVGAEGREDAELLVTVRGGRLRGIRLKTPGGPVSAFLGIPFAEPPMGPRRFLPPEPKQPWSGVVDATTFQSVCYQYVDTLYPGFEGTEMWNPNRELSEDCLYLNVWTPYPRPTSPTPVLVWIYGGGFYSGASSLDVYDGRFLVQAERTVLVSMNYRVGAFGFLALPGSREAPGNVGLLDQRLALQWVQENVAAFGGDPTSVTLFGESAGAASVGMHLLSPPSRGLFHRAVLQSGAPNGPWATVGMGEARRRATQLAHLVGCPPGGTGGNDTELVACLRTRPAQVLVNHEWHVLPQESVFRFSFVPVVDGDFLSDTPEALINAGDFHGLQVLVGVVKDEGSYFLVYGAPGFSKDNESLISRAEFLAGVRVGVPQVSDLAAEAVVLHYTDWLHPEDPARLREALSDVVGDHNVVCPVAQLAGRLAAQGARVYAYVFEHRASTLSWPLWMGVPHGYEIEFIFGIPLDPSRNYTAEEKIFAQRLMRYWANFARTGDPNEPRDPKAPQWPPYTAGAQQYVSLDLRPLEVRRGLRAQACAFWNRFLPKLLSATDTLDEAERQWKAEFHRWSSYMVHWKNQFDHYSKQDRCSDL
The subject of assay [2] is Mus musculus. Kind of assay: Cognitive enhancing effect in Swiss albino mouse model of STZ-induced cognition deficit assessed as increase in time spent in target quadrant at 3.7 mg/kg, po administrated for 15 days and measured at 5th day of training session for 60 secs by Morris water maze test. Type of assay: functional, organism-based.
In assay [3] the test system is Mus musculus. Kind of assay: Cognitive enhancing effect in Swiss albino mouse model of STZ-induced cognition deficit assessed as reduction in escape latency time to find removed platform position at 3.7 mg/kg, po administrated for 15 days and measured for 4 days by Morris water maze test. The assay is classed as functional, organism-based.
The test system of assay [4] is Mus musculus. Kind of assay: Neuroprotective activity in Swiss albino mouse model of STZ-induced cognition deficit assessed as reduction in Abeta42 deposition level in brain at 3.7 mg/kg, po administrated for 15 days by ELISA. Type of assay: functional, organism-based.
In assay [5] the test system is Mus musculus. Kind of assay: Cognitive enhancing effect in Swiss albino mouse model of STZ-induced cognition deficit assessed as increase in spontaneous alteration at 3.7 mg/kg, po administrated for 15 days and measured for 8 mins by Y-maze test. The assay is classed as functional, organism-based.
The test system of assay [6] is Mus musculus. Kind of assay: Memory enhancement effect in Swiss albino mouse model of STZ-induced cognition deficit assessed as increase in exploratory preference at 3.7 mg/kg, po administrated for 15 days and measured for 5 mins by novel object recognition test. Type of assay: functional, organism-based.
In assay [7] the test system is Mus musculus. Kind of assay: Cognitive enhancing effect in Swiss albino mouse model of STZ-induced cognition deficit assessed as increase in time spent in target quadrant at 3.2 mg/kg, po administrated for 15 days and measured at 5th day of training session for 60 secs by Morris water maze test. The assay is classed as functional, organism-based.
The test system of assay [8] is Mus musculus. Kind of assay: Cognitive enhancing effect in Swiss albino mouse model of STZ-induced cognition deficit assessed as reduction in escape latency time to find removed platform position at 3.2 mg/kg, po administrated for 15 days and measured for 4 days by Morris water maze test. The assay is classed as functional, organism-based.
Assay [9] relates to Mus musculus. Kind of assay: Cognitive enhancing effect in Swiss albino mouse model of STZ-induced cognition deficit assessed as increase in spontaneous alteration at 3.2 mg/kg, po administrated for 15 days and measured for 8 mins by Y-maze test. Type of assay: functional, organism-based.
The test system of assay [10] is Mus musculus. Kind of assay: Memory enhancement effect in Swiss albino mouse model of STZ-induced cognition deficit assessed as increase in exploratory preference at 3.2 mg/kg, po administrated for 15 days and measured for 5 mins by novel object recognition test. The assay is classed as functional, organism-based.
Assay [11] has as its system Mus musculus. Kind of assay: Neuroprotective activity in Swiss albino mouse model of STZ-induced cognition deficit assessed as reduction in Abeta42 deposition level in brain at 3.2 mg/kg, po administrated for 15 days by ELISA. Type of assay: functional, organism-based. Background: ELISA stands for enzyme-linked immunosorbent assay.
Assay [12] relates to Mus musculus. Kind of assay: Cognitive enhancing effect in Swiss albino mouse model of STZ-induced cognition deficit assessed as increase in spontaneous alteration at 2.5 mg/kg, po administrated for 15 days and measured for 8 mins by Y-maze test. Type of assay: functional, organism-based.
The subject of assay [13] is Mus musculus. Kind of assay: Cognitive enhancing effect in Swiss albino mouse model of STZ-induced cognition deficit assessed as increase in time spent in target quadrant at 2.5 mg/kg, po administrated for 15 days and measured at 5th day of training session for 60 secs by Morris water maze test. The assay is classed as functional, organism-based.
The subject of assay [14] is Mus musculus. Kind of assay: Memory enhancement effect in Swiss albino mouse model of STZ-induced cognition deficit assessed as increase in exploratory preference at 2.5 mg/kg, po administrated for 15 days and measured for 5 mins by novel object recognition test. Type of assay: functional, organism-based.
Assay [15] deals with Mus musculus. Kind of assay: Neuroprotective activity in Swiss albino mouse model of STZ-induced cognition deficit assessed as reduction in Abeta42 deposition level in brain at 2.5 mg/kg, po administrated for 15 days by ELISA. The assay is classed as functional, organism-based.
Assay [16] relates to Mus musculus. Kind of assay: Cognitive enhancing effect in Swiss albino mouse model of STZ-induced cognition deficit assessed as reduction in escape latency time to find removed platform position at 2.5 mg/kg, po administrated for 15 days and measured for 4 days by Morris water maze test. Type of assay: functional, organism-based.

By pIC50 is commonly meant −log10 of the IC50, conventionally taken in molar units.

Molecule `CSc1ccc(/C=N/c2ccc3oc(=O)ccc3c2)cc1` had a pIC50 in assay [1] of 6.76. Same read-out and setting: with `O=c1ccc2cc(/N=C/c3ccc(Cl)cc3)ccc2o1` the figure was 7.10; with `CSc1ccc(/C=C2/S/C(=N/c3ccc4oc(=O)ccc4c3)NC2=O)cc1`, 6.82; with `O=C1N/C(=N\c2ccc3oc(=O)ccc3c2)S/C1=C/c1ccccc1`, 7.03. Same read-out and setting: in the case of `O=c1ccc2cc(/N=C/c3ccc(Br)cc3)ccc2o1` it was 7.24.

In assay [1], `O=c1ccc2cc(/N=C/c3ccccc3)ccc2o1` showed a negative-log IC50 (pIC50) of 6.94. Same read-out and setting: in the case of `O=C(CNc1ccc2oc(=O)ccc2c1)N1CCN(c2ccccc2)CC1` it was 7.10; in that of `O=C1N/C(=N\c2ccc3oc(=O)ccc3c2)S/C1=C/c1ccc(Br)cc1`, 6.56. Same read-out and setting: with `COc1ccc(NCC(=O)Nc2ccc3oc(=O)ccc3c2)cc1` the figure was 7.26; with `O=c1ccc2cc(/N=C/c3ccc(F)cc3)ccc2o1`, 6.65. Turning to `O=C(CNc1ccc2oc(=O)ccc2c1)N1CCOCC1`, the result in [2], in assay [3], in assay [4], in assay [5] and in assay [6] was Active. In assay [1], this molecule showed a pIC50 of 7.43.

Take `COc1ccc(/C=N/c2ccc3oc(=O)ccc3c2)cc1`: the negative logarithm of the IC50 (pIC50) in assay [1] was 6.87. Same read-out and setting: with `COc1ccc(/C=C2/S/C(=N/c3ccc4oc(=O)ccc4c3)NC2=O)cc1` the figure was 7.30; with `O=C1N/C(=N\c2ccc3oc(=O)ccc3c2)S/C1=C/c1ccc(Cl)cc1`, 6.76.

Consider `COc1ccc(C(=O)CNc2ccc3oc(=O)ccc3c2)cc1`, for which the result in [7], in assay [8], in [9], in assay [10] and in [11] was Active. In [1], this molecule showed a pIC50 of 7.26. `COc1ccc(C2SCC(=O)N2c2ccc3oc(=O)ccc3c2)cc1` (stereo not drawn) had a pIC50 in [1] of 7.15. Same read-out and setting: in the case of `CSc1ccc(C2SCC(=O)N2c2ccc3oc(=O)ccc3c2)cc1` (stereo not drawn) it was 6.51. Still for that read-out and setting: in the case of `O=C(CNc1ccc2oc(=O)ccc2c1)c1ccccc1` it was 6.83; in that of `CN(C)c1ccc(/C=C2/S/C(=N/c3ccc4oc(=O)ccc4c3)NC2=O)cc1`, 7.08; in that of `O=C1CSC(c2ccc(F)cc2)N1c1ccc2oc(=O)ccc2c1` (stereo not drawn), 6.99. Same read-out and setting: in the case of `O=C(CNc1ccc(F)cc1)Nc1ccc2oc(=O)ccc2c1` it was 7.21. Consider `CN(C)c1ccc(/C=N/c2ccc3oc(=O)ccc3c2)cc1`, for which the result in [12], in [13], in assay [14], in assay [15] and in [16] was Active. The same molecule had a negative logarithm of the IC50 (pIC50) in assay [1] of 7.39.

Molecule `O=C1N/C(=N\c2ccc3oc(=O)ccc3c2)S/C1=C/c1ccc(F)cc1` gave a pIC50 in [1] of 6.67.
